PMC6751662, “Pharmacological and functional similarities of the human neuropeptide Y system in C. elegans challenges phylogenetic views on the FLP/NPR system” (Cell Communication and Signaling : CCS, 2019)
Like-named read-outs stand apart in the source and are kept apart here. One block for each substance: values may come before it. Ends that are not written are not given here.

Tests used:
Assay type in all cases: cell-based, C. elegans
NPR-3 = biological target: T1, NPR-3 (Caenorhabditis elegans, UniProt P90745); assay: cAMP reporter gene assay, Gi/o (inhibition of forskolin-induced cAMP), NPR-3; conditions: for Gi (Gs) [x-fold of forskolin], NPR-3, mean: inhibition of cAMP production induced by 1 µM forskolin (set to 1.00); for Gi (Gs) [x-fold of forskolin], NPR-3, mean / cAMP, x-fold of forskolin (mean), NPR-3: transiently transfected HEK293 cells, mean of at least three independent experiments; for cAMP, x-fold of forskolin (mean), NPR-3: 1 µM forskolin set to 1.00
T1 construct: expressed in transfected cells; host or cells: HEK293
T1 sequence (P90745 1-376): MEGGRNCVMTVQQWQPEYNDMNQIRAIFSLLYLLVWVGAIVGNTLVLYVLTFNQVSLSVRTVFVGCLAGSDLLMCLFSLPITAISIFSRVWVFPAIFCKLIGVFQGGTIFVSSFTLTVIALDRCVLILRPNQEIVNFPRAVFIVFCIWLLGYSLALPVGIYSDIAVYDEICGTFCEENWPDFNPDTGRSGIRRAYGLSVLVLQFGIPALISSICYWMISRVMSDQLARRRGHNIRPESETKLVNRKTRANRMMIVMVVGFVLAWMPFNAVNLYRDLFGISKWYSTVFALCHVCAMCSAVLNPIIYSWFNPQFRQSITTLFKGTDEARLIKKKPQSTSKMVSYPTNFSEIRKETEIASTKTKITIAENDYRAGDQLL
Protocol: (§1) Activation of Gs and Gi/o was assessed with a cAMP reporter gene assay. HEK293 cells grown to 70–80% confluency in 6-well plates were transiently co-transfected with vectors encoding the receptor and the cAMP reporter gene plasmid pGL4.29 [luc2P/CRE/Hygro] (Promega; 4 μg total, 1:1 ratio) using Metafectene Pro (3 μl/μg DNA; Biontex) following the manufacturer’s instructions. 16 h post transfection, the cells were seeded into white 384-well plates at a density of 20,000 cells/well. On the next day, the medium was removed and the cells were stimulated with 20 μl of peptide solution (or forskolin as positive control) in serum-free DMEM for 4 h. For measuring Gi/o activity, the peptide solutions additionally contained 1 μM forskolin to elevate cellular cAMP levels. After incubation, the luciferase substrate OneGlo in lysis buffer (Promega) was added and the luminescence was measured in a microplate reader Tecan Spark (Tecan). Data were analyzed with GraphPad Prism 5.03 and are shown as fold of basal or fold of forskolin in case of Gαi/o activity.
(§2) For in vitro activation, data is presented as mean ± SEM of at least three independent experiments conducted in technical triplicate. […] For the C. elegans NPRs, we considered the strongest response elicited by any of the peptides downstream of a particular receptor as the receptor’s maximal signal. This may or may not be the biological maximum that can be reached by the ‘true’ endogenous agonist. For the human receptors, the response to the established endogenous agonist reflected the maximal signal.

NPR-4b = biological target: T2, NPR-4b (Caenorhabditis elegans, UniProt A0A078BTK0); assay: cAMP reporter gene assay, Gi/o (inhibition of forskolin-induced cAMP), NPR-4b; conditions: for Emax: NPR-4b, forskolin (1 µM) set to 1.00, lower values correspond to high Gi/o activity, mean ± SEM of at least three independent experiments, SEM; for Emax / Gi (Gs) [x-fold of forskolin], NPR-4b, mean / cAMP, x-fold of forskolin (mean), NPR-4b: transiently transfected HEK293 cells; for Gi (Gs) [x-fold of forskolin], NPR-4b, mean: inhibition of cAMP production induced by 1 µM forskolin (set to 1.00); for Gi (Gs) [x-fold of forskolin], NPR-4b, mean / cAMP, x-fold of forskolin (mean), NPR-4b: mean of at least three independent experiments; for cAMP, x-fold of forskolin (mean), NPR-4b: 1 µM forskolin set to 1.00
T2 sequence (A0A078BTK0 1-376): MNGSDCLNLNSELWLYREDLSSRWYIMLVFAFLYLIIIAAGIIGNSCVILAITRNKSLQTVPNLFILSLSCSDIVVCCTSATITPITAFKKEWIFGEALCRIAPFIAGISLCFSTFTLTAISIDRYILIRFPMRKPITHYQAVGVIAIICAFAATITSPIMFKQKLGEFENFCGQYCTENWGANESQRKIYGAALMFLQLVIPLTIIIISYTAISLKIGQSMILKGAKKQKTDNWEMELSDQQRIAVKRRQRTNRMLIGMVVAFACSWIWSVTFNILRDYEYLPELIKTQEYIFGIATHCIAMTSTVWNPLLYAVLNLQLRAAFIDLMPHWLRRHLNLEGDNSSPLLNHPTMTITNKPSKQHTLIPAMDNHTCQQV
Protocol: as §1, with “(Tecan).” for “(Tecan). Data were analyzed with GraphPad Prism 5.03 and are shown as fold of basal or fold of forskolin in case of Gαi/o activity.”
as §2

NPR-11 = biological target: T3, NPR-11 (Caenorhabditis elegans, UniProt Q18179); assay: cAMP reporter gene assay, Gi/o (inhibition of forskolin-induced cAMP), NPR-11; conditions: for Emax: HEK293, read-out: Emax ± SEM [%]; for Gi (Gs) [x-fold of forskolin], NPR-11, mean: inhibition of cAMP production induced by 1 µM forskolin (set to 1.00); for Gi (Gs) [x-fold of forskolin], NPR-11, mean / cAMP, x-fold of forskolin (mean), NPR-11: transiently transfected HEK293 cells, mean of at least three independent experiments; for cAMP, x-fold of forskolin (mean), NPR-11: 1 µM forskolin set to 1.00
T3 construct: expressed in transfected cells; host or cells: HEK293, transient
T3 sequence (Q18179 1-402): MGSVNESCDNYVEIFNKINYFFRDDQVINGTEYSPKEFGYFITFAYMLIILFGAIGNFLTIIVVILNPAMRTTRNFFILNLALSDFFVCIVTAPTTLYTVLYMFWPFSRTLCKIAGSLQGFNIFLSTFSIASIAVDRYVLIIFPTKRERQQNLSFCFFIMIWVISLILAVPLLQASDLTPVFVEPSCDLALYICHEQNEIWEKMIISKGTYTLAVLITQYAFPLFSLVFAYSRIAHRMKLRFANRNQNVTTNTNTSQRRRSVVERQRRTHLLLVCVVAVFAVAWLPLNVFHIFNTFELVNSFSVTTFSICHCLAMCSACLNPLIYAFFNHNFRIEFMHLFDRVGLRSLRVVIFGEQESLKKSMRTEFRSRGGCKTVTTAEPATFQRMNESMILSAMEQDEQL
Protocol: as §1, §2

NPR-1 = biological target: T4, NPR-1 (Caenorhabditis elegans, UniProt Q18534); assay: cAMP reporter gene assay, Gi/o (inhibition of forskolin-induced cAMP), NPR-1; design: host or cells: HEK293; conditions: for Emax: HEK293, read-out: Emax ± SEM [%], SEM; for Gi (Gs) [x-fold of forskolin], NPR-1, mean / cAMP, x-fold of forskolin (mean), NPR-1: inhibition of cAMP production induced by 1 µM forskolin (set to 1.00), transiently transfected HEK293 cells, mean of at least three independent experiments; for cAMP, x-fold of forskolin (mean), NPR-1: lower = higher Gi/o activity
T4 sequence (Q18534 1-457): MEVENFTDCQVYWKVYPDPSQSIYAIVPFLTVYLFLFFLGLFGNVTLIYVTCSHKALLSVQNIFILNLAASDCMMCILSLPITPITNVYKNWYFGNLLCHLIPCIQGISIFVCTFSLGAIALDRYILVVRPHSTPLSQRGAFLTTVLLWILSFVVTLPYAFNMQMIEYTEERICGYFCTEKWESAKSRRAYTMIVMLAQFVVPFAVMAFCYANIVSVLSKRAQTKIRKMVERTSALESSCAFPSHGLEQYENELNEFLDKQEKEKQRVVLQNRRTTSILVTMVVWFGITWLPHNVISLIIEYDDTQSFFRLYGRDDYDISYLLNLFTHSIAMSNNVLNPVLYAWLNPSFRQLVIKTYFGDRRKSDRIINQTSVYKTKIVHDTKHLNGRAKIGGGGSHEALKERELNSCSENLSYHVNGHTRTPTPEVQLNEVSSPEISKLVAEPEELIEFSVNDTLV
Protocol: as §1, §2

Substance: GLGPRPLRF-NH2 [FLP-21]
Emax (NPR-3; HEK293, read-out: Emax ± SEM [%], SEM): -0.59 ± 0.26%
EC50 (NPR-4b): 0.358 µM
Emax (NPR-4b): -0.58 ± 0.07%
EC50 (NPR-11): 0.102 µM
Emax (NPR-11; SEM): -0.72 ± 0.06%
EC50 (NPR-1): 0.00097 µM
Emax (NPR-1): -0.97 ± 0.15%

Gi (Gs) [x-fold of forskolin], NPR-3, mean (NPR-3; 0.1 µM peptide): 1.20 x-fold of forskolin
Gi (Gs) [x-fold of forskolin], NPR-3, mean (NPR-3; 10 µM peptide): 1.38 x-fold of forskolin
Gi (Gs) [x-fold of forskolin], NPR-4b, mean (NPR-4b; 0.1 µM peptide): 0.95 x-fold of forskolin
Gi (Gs) [x-fold of forskolin], NPR-4b, mean (NPR-4b; 10 µM peptide): 0.99 x-fold of forskolin
Gi (Gs) [x-fold of forskolin], NPR-11, mean (NPR-11; 0.1 µM peptide): 0.87 x-fold of forskolin
Gi (Gs) [x-fold of forskolin], NPR-11, mean (NPR-11; 10 µM peptide): 0.67 x-fold of forskolin
Gi (Gs) [x-fold of forskolin], NPR-1, mean (NPR-1; 0.1 µM peptide): 0.90 x-fold of forskolin
Gi (Gs) [x-fold of forskolin], NPR-1, mean (NPR-1; 10 µM peptide): 0.89 x-fold of forskolin
Substance: GLGPRPLAF-NH2 [[R8A]FLP-21, R8A control peptide of FLP-21, penultimate arginine exchanged for an alanine]

Substance: PrRP31 [reference compound]
cAMP, x-fold of forskolin (mean), NPR-3 (NPR-3; 0.1 µM peptide): 1.10 x-fold of forskolin
cAMP, x-fold of forskolin (mean), NPR-3 (NPR-3; 10 µM peptide): 1.29 x-fold of forskolin
cAMP, x-fold of forskolin (mean), NPR-4b (NPR-4b; 0.1 µM peptide): 1.05 x-fold of forskolin
cAMP, x-fold of forskolin (mean), NPR-4b (NPR-4b; 10 µM peptide): 0.64 x-fold of forskolin
cAMP, x-fold of forskolin (mean), NPR-11 (NPR-11; 0.1 µM peptide): 1.06 x-fold of forskolin
cAMP, x-fold of forskolin (mean), NPR-11 (NPR-11; 10 µM peptide): 0.74 x-fold of forskolin
cAMP, x-fold of forskolin (mean), NPR-1 (NPR-1; 0.1 µM peptide): 1.30 x-fold of forskolin
cAMP, x-fold of forskolin (mean), NPR-1 (NPR-1; 10 µM peptide): 1.41 x-fold of forskolin

Substance: SEVPGVLRF-NH2 [FLP-18-5]
Emax (NPR-4b): -0.6 ± 0.05%
Emax (NPR-11; SEM): -0.16 ± 0.08%
EC50 (NPR-11; SEM): 0.0794 µM
Emax (NPR-1): -0.53 ± 0.2%
